Earlier results in patent US20080299102A1, “Novel BACE proteins, nucleic acid molecules therefor, novel crystal structure of novel BACE proteins, and methods for making and using” (priority 2001, published 2008).
Where a SMILES comes first, the peptide text is derived from it. [ ]: non-standard residue; d: D form. The star is where a group is joined. Sta = CC(C)C[C@H](N)[C@@H](O)CC(=O)O; Isovaleryl = CC(C)CC(=O)*

Biological target: BACE (Homo sapiens, UniProt P56817)
Conditions: general statement in the description, no test data given

Chain of BACE (P56817 46-501): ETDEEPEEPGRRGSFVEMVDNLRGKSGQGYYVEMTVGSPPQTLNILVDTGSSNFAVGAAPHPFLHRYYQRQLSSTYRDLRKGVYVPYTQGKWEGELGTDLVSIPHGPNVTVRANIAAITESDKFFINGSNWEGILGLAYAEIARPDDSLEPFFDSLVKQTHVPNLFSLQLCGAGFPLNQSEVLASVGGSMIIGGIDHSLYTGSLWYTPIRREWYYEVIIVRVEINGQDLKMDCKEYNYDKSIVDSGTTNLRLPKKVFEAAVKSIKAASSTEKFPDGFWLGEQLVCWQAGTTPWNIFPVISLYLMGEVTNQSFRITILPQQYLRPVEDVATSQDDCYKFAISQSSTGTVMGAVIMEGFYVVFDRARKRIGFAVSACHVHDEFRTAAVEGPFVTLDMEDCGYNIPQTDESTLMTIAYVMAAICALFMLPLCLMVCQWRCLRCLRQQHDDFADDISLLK

- inhibition of BACE: not inhibited
SMILES: CC(C)CC(=O)N[C@H](C(=O)N[C@H](C(=O)N[C@@H](CC(C)C)[C@@H](O)CC(=O)N[C@@H](C)C(=O)N[C@@H](CC(C)C)[C@@H](O)CC(=O)O)C(C)C)C(C)C [pepstatin] (Isovaleryl-VV[Sta]A[Sta]-OH)
